Patent publication US9249145B2, “Heterocyclic derivatives of pyrazol-4-yl-pyrrolo[2,3-d]pyrimidines as janus kinase inhibitors” (Incyte Holdings Corporation, priority 2009, dated 2016)

What was measured:
[1] = molecular target: T1, human JAK1 (a.a. 837-1142) (Homo sapiens, UniProt P23458); experiment: In vitro JAK kinase assay (HTRF, phosphorylation of biotinylated peptide), JAK1; assay type: biochemical; details: 1 mM ATP; Examples 92-162; read-out: JAK1 IC50 (nM) @ 1 mM ATP
T1 construct: The catalytic domains of human JAK1 (a.a. 837-1142); His tag (N); made in house; host or cells: insect cells (baculovirus)
T1 sequence (P23458 849-1154): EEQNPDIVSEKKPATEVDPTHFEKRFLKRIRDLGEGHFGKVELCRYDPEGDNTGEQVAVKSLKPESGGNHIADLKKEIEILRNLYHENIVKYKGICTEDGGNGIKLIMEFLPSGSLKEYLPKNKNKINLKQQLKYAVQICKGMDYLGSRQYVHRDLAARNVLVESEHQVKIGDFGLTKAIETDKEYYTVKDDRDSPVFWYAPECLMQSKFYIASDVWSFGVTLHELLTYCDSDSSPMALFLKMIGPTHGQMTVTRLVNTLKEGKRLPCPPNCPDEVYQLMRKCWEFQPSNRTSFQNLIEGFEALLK
Method in brief: (§1)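 His-tagged catalytic domains expressed in baculovirus/insect cells; biotinylated peptide (500 nM) phosphorylation in 50 mM Tris pH 7.8, 100 mM NaCl, 5 mM DTT, 0.01% BSA, 1 h room temperature. ATP at Km (JAK1 90 μM, JAK2 30 μM) or 1 mM. EDTA stop, Eu-Py20/SA-APC HTRF read; IC50.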

Jak2 (a.a. 828-1132) = molecular target: T2, Jak2 (a.a. 828-1132) (Homo sapiens, UniProt O60674); experiment: In vitro JAK kinase assay (HTRF, phosphorylation of biotinylated peptide), JAK2; assay type: biochemical; details: 1 mM ATP; Examples 92-162; read-out: JAK2 IC50 (nM) @ 1 mM ATP
T2 construct: Jak2 (a.a. 828-1132); His tag (N); made in house; host or cells: insect cells (baculovirus)
T2 sequence (O60674 828-1132): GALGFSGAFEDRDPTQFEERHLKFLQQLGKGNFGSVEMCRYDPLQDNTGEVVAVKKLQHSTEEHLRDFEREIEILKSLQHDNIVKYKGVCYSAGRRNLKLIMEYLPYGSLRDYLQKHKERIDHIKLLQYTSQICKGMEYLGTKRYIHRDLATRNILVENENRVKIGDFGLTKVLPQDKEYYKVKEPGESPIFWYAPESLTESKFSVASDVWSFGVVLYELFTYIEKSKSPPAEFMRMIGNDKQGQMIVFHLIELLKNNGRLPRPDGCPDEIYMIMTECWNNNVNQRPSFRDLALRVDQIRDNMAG
Method in brief: as §1

SMILES | IC50 [1] [nM] | IC50 (Jak2 (a.a. 828-1132)) [nM]
CCC(CN1CCN(S(=O)(=O)c2sccc2Cl)CC1)n1cc(-c2ncnc3[nH]ccc23)cn1 (stereo not shown) [Example 135, 4-(1-(1-(4-(3-chlorothiophen-2-ylsulfonyl)piperazin-1-yl)butan-2-yl)-1H-pyrazol-4-yl)-7H-pyrrolo[2,3-d]pyrimidine] | < 20 | 20 to 50
CCC(CN1CCN(S(=O)(=O)c2cccc(F)c2)CC1)n1cc(-c2ncnc3[nH]ccc23)cn1 (stereo not shown) [Example 136, 4-(1-(1-(4-(3-fluorophenylsulfonyl)piperazin-1-yl)butan-2-yl)-1H-pyrazol-4-yl)-7H-pyrrolo[2,3-d]pyrimidine] | < 20 | 20 to 50
CCC(CN1CCN(S(=O)(=O)c2ccc(F)cc2)CC1)n1cc(-c2ncnc3[nH]ccc23)cn1 (stereo not shown) [Example 137, 4-(1-(1-(4-(4-fluorophenylsulfonyl)piperazin-1-yl)butan-2-yl)-1H-pyrazol-4-yl)-7H-pyrrolo[2,3-d]pyrimidine] | < 20 | 50 to 100
CCC(CN1CCN(S(=O)(=O)c2cccc(C#N)c2)CC1)n1cc(-c2ncnc3[nH]ccc23)cn1 (stereo not shown) [Example 139, 3-(4-(2-(4-(7H-pyrrolo[2,3-d]pyrimidin-4-yl)-1H-pyrazol-1-yl)butyl)piperazin-1-ylsulfonyl)benzonitrile] | 20 to 50 | > 100
CCC(CN1CCN(S(=O)(=O)c2ccc(F)cc2F)CC1)n1cc(-c2ncnc3[nH]ccc23)cn1 (stereo not shown) [Example 140, 4-(1-(1-(4-(2,4-difluorophenylsulfonyl)piperazin-1-yl)butan-2-yl)-1H-pyrazol-4-yl)-7H-pyrrolo[2,3-d]pyrimidine] | < 20 | 50 to 100
CCC(CN1CCN(S(=O)(=O)c2cc(F)ccc2F)CC1)n1cc(-c2ncnc3[nH]ccc23)cn1 (stereo not shown) [Example 141, 4-(1-(1-(4-(2,5-difluorophenylsulfonyl)piperazin-1-yl)butan-2-yl)-1H-pyrazol-4-yl)-7H-pyrrolo[2,3-d]pyrimidine] | < 20 | 50 to 100
CCC(CN1CCN(S(=O)(=O)c2cc(F)cc(F)c2)CC1)n1cc(-c2ncnc3[nH]ccc23)cn1 (stereo not shown) [Example 142, 4-(1-(1-(4-(3,5-difluorophenylsulfonyl)piperazin-1-yl)butan-2-yl)-1H-pyrazol-4-yl)-7H-pyrrolo[2,3-d]pyrimidine] | < 20 | 50 to 100
CCC(CN1CCN(S(=O)(=O)c2ccc(F)cc2C)CC1)n1cc(-c2ncnc3[nH]ccc23)cn1 (stereo not shown) [Example 143, 4-(1-(1-(4-(4-floro-2-methylphenylsulfonyl)piperazin-1-yl)butan-2-yl)-1H-pyrazol-4-yl)-7H-pyrrolo[2,3-d]pyrimidine] | < 20 | > 100
CCC(CN1CCN(S(=O)(=O)c2cn(C)c(C)n2)CC1)n1cc(-c2ncnc3[nH]ccc23)cn1 (stereo not shown) [Example 144, 4-(1-(1-(4-(1,2-dimethyl-1H-imidazol-4-ylsulfonyl)piperazin-1-yl)butan-2-yl)-1H-pyrazol-4-yl)-7H-pyrrolo[2,3-d]pyrimidine] | 20 to 50 | 50 to 100
CCC(CN1CCN(S(=O)(=O)c2ccc(Br)s2)CC1)n1cc(-c2ncnc3[nH]ccc23)cn1 (stereo not shown) [Example 145, 4-(1-(1-(4-(5-bromothiophen-2-ylsulfonyl)piperazin-1-yl)butan-2-yl)-1H-pyrazol-4-yl)-7H-pyrrolo[2,3-d]pyrimidine] | < 20 | 20 to 50
Cc1c(Nc2ccccc2)ncnc1N1CCC(C(CC#N)n2cc(-c3ncnc4[nH]ccc34)cn2)CC1 (stereo not shown) [Example 146, 3-[1-(6-anilino-5-methylpyrimidin-4-yl)piperidin-4-yl]-3-[4-(7H-pyrrolo[2,3-d]pyrimidin-4-yl)-1H-pyrazol-1-yl]propanenitrile] | 20 to 50 | > 100
Cc1c(Nc2ccccc2F)ncnc1N1CCC(C(CC#N)n2cc(-c3ncnc4[nH]ccc34)cn2)CC1 (stereo not shown) [Example 147, 3-(4-(7H-pyrrolo[2,3-d]pyrimidin-4-yl)-1H-pyrazol-1-yl)-3-(1-(6-(2-fluorophenylamino)-5-methylpyrimidin-4-yl)piperidin-4-yl)propanenitrile] | < 20 | > 100
Cc1c(Nc2cccc(F)c2)ncnc1N1CCC(C(CC#N)n2cc(-c3ncnc4[nH]ccc34)cn2)CC1 (stereo not shown) [Example 148, 3-(4-(7H-pyrrolo[2,3-d]pyrimidin-4-yl)-1H-pyrazol-1-yl)-3-(1-(6-(3-fluorophenylamino)-5-methylpyrimidin-4-yl)piperidin-4-yl)propanenitrile] | < 20 | 50 to 100
Cc1c(Nc2cc(F)ccc2F)ncnc1N1CCC(C(CC#N)n2cc(-c3ncnc4[nH]ccc34)cn2)CC1 (stereo not shown) [Example 149, 3-(4-(7H-pyrrolo[2,3-d]pyrimidin-4-yl)-1H-pyrazol-1-yl)-3-(1-(6-(2,5-difluorophenylamino)-5-methylpyrimidin-4-yl)piperidin-4-yl)propanenitrile] | < 20 | > 100
Cc1c(Nc2ccc(F)c(F)c2)ncnc1N1CCC(C(CC#N)n2cc(-c3ncnc4[nH]ccc34)cn2)CC1 (stereo not shown) [Example 150, 3-(4-(7H-pyrrolo[2,3-d]pyrimidin-4-yl)-1H-pyrazol-1-yl)-3-(1-(6-(3,4-difluorophenylamino)-5-methylpyrimidin-4-yl)piperidin-4-yl)propanenitrile] | < 20 | < 20
N#CCC(C1CCN(c2cc(Oc3ccccc3)ncn2)CC1)n1cc(-c2ncnc3[nH]ccc23)cn1 (stereo not shown) [Example 151, 3-(4-(7H-pyrrolo[2,3-d]pyrimidin-4-yl)-1H-pyrazol-1-yl)-3-(1-(6-phenoxypyrimidin-4-yl)piperidin-4-yl)propanenitrile] | < 20 | 50 to 100
N#CCC(C1CCN(c2cc(Oc3cccc(F)c3)ncn2)CC1)n1cc(-c2ncnc3[nH]ccc23)cn1 (stereo not shown) [Example 152, 3-(4-(7H-pyrrolo[2,3-d]pyrimidin-4-yl)-1H-pyrazol-1-yl)-3-(1-(6-(3-fluorophenoxy)pyrimidin-4-yl)piperidin-4-yl)propanenitrile] | 20 to 50 | < 20
Cc1c(Nc2cccc(F)c2F)ncnc1N1CCC(C(CC#N)n2cc(-c3ncnc4[nH]ccc34)cn2)CC1 (stereo not shown) [Example 153, 3-(4-(7H-pyrrolo[2,3-d]pyrimidin-4-yl)-1H-pyrazol-1-yl)-3-(1-(6-(2,3-difluorophenylamino)-5-methylpyrimidin-4-yl)piperidin-4-yl)propanenitrile] | 20 to 50 | > 100
Cc1c(Nc2c(F)cccc2F)ncnc1N1CCC(C(CC#N)n2cc(-c3ncnc4[nH]ccc34)cn2)CC1 (stereo not shown) [Example 154, 3-(4-(7H-pyrrolo[2,3-d]pyrimidin-4-yl)-1H-pyrazol-1-yl)-3-(1-(6-(2,6-difluorophenylamino)-5-methylpyrimidin-4-yl)piperidin-4-yl)propanenitrile] | < 20 | 50 to 100
Cc1c(Nc2ccc(F)cc2F)ncnc1N1CCC(C(CC#N)n2cc(-c3ncnc4[nH]ccc34)cn2)CC1 (stereo not shown) [Example 155, 3-(4-(7H-pyrrolo[2,3-d]pyrimidin-4-yl)-1H-pyrazol-1-yl)-3-(1-(6-(2,4-difluorophenylamino)-5-methylpyrimidin-4-yl)piperidin-4-yl)propanenitrile] | < 20 | > 100
